Reference: patent US4051253A, “Microbicidal nitrofuryl compounds” (Byk Gulden Lomberg Chemische Fabrik GmbH, priority 1974, dated 1977)
In brackets after ≈: the same amount, converted by molar mass. Where two headings read alike, the source gives them in different places.

Key:
[1] = system: 9 bacteria and 2 yeast strains; experiment: In vitro tests with 9 bacteria and 2 yeast strains (summary); format: cell-based; conditions: Table 2
Staph. aur. PCI 1203 = experiment: microbe, parasite or virus in culture; format: cell-based; conditions: for MBC: read-out: Concentration from which subcultures no longer started; for MIC: read-out: Minimum inhibiting concentration (MHK), series dilution test
E. coli 6106 = experiment: microbe, parasite or virus in culture; format: cell-based; conditions: for MIC: read-out: Minimum inhibiting concentration (MHK), series dilution test
C. Paracrusei 45 = experiment: microbe, parasite or virus in culture; format: cell-based; conditions: for MBC: read-out: Concentration from which subcultures no longer started; for MIC: read-out: Minimum inhibiting concentration (MHK), series dilution test
streptococci group A 807 = experiment: microbe, parasite or virus in culture; format: cell-based; conditions: for MIC: read-out: Minimum inhibiting concentration (MHK), series dilution test
Trichomonas foetus = experiment: Infection tests with Trichomonas foetus in mice; format: in vivo; conditions: for % of Animals Dying After Infection (Mean Value): stomach tube, 3 successive days, NMRI mice; for animals survived / survival rate: dose of 6.25 mg/kg, mice infected with T. foetus; for activity against T. foetus compared with metronidazol (in words): infected mice
in vivo = conditions: mouse
[2] = system: Serratia marcescens strain HY/a 21
streptococci group C 805 = experiment: microbe, parasite or virus in culture; format: cell-based; conditions: for MBC: read-out: Concentration from which subcultures no longer started; for MIC: read-out: Minimum inhibiting concentration (MHK), series dilution test
Klebs. pneum. PCI 602 = experiment: microbe, parasite or virus in culture; format: cell-based; conditions: for MBC: read-out: Concentration from which subcultures no longer started; for MIC: read-out: Minimum inhibiting concentration (MHK), series dilution test
streptoc. group B 779 = experiment: microbe, parasite or virus in culture; format: cell-based; conditions: for MBC: read-out: Concentration from which subcultures no longer started; for MIC: read-out: Minimum inhibiting concentration (MHK), series dilution test
enterococci = experiment: microbe, parasite or virus in culture; format: cell-based; conditions: for MIC: read-out: Minimum inhibiting concentration (MHK), series dilution test
Ps. aeruginosa 2 = experiment: microbe, parasite or virus in culture; format: cell-based; conditions: for MIC: read-out: Minimum inhibiting concentration (MHK), series dilution test
Staph. aur. SG 511 = experiment: microbe, parasite or virus in culture; format: cell-based; conditions: for MIC: read-out: Minimum inhibiting concentration (MHK), series dilution test
C. Albicans 49 = experiment: microbe, parasite or virus in culture; format: cell-based; conditions: Candida albicans; for MIC: read-out: Minimum inhibiting concentration (MHK), series dilution test
[3] = subcultures applied after 48 h, read after 24 h
[4] = 24 h, read-out: Concentration from which subcultures no longer started, subcultures applied after 24 h, read after 24 h
[5] = 48 h, read-out: Concentration from which subcultures no longer started, subcultures applied after 48 h, read after 48 h
[6] = read-out: Concentration from which subcultures no longer started, subcultures applied after 24 h, read after 48 h
[7] = read-out: Concentration from which subcultures no longer started, subcultures applied after 48 h, read after 24 h

Structure (SMILES): Cc1ccccc1C(=O)NN=CC=Cc1ccc([N+](=O)[O-])o1 [A, 5-nitro-2-[(o-toluoylhydrazono)propen-1-yl]furan]
- in vitro antibacterial/antiyeast effect compared with metronidazol (in words) [1]: substantially more favorable picture
- MBC (Staph. aur. PCI 1203; 24 h): 31.2 µg/mL (≈ 104 µM)
- MIC (Staph. aur. PCI 1203; 24 h): 15.6 µg/mL (≈ 52.1 µM)
- MBC (Staph. aur. PCI 1203; 48 h): 31.2 µg/mL (≈ 104 µM)
- MIC (Staph. aur. PCI 1203; 48 h): 31.2 µg/mL (≈ 104 µM)
- MBC (Staph. aur. PCI 1203): 31.2 µg/mL (≈ 104 µM)
- Concentration from which subcultures no longer started (Staph. aur. PCI 1203; [3]): 31.25 µg/mL
- MBC (E. coli 6106; Escherichia coli, 6106, 24 h, read-out: Concentration from which subcultures no longer started): 62.5 µg/mL (≈ 209 µM)
- MIC (E. coli 6106; Escherichia coli, 6106, 24 h): 31.2 µg/mL (≈ 104 µM)
- MBC (E. coli 6106; Escherichia coli, 6106, 48 h, read-out: Concentration from which subcultures no longer started): 62.5 µg/mL (≈ 209 µM)
- MIC (E. coli 6106; Escherichia coli, 6106, 48 h): 62.5 µg/mL (≈ 209 µM)
- MBC (E. coli 6106; Escherichia coli, 6106, read-out: Concentration from which subcultures no longer started): 62.5 µg/mL (≈ 209 µM)
- Concentration from which subcultures no longer started (E. coli 6106; [3]): 62.5 µg/mL
- MBC (C. Paracrusei 45; 24 h): 125 µg/mL (≈ 418 µM)
- MIC (C. Paracrusei 45; 24 h): 62.5 µg/mL (≈ 209 µM)
- MBC (C. Paracrusei 45; 48 h): 125 µg/mL (≈ 418 µM)
- MIC (C. Paracrusei 45; 48 h): 125 µg/mL (≈ 418 µM)
- MBC (C. Paracrusei 45): 125 µg/mL (≈ 418 µM)
- Concentration from which subcultures no longer started (C. Paracrusei 45; [3]): 125 µg/mL
- MBC (streptococci group A 807; [4]): 125 µg/mL (≈ 418 µM)
- MIC (streptococci group A 807; 24 h): 31.2 µg/mL (≈ 104 µM)
- MBC (streptococci group A 807; [5]): 125 µg/mL (≈ 418 µM)
- MIC (streptococci group A 807; 48 h): 31.2 µg/mL (≈ 104 µM)
- MBC (streptococci group A 807; [6]): 125 µg/mL (≈ 418 µM)
- MBC (streptococci group A 807; [7]): 62.5 µg/mL (≈ 209 µM)
- % of Animals Dying After Infection (Mean Value) (Trichomonas foetus; 3.12 mg/kg): 91.66%
- % of Animals Dying After Infection (Mean Value) (Trichomonas foetus; 6.25 mg/kg): 36.33%
- % of Animals Dying After Infection (Mean Value) (Trichomonas foetus; 12.5 mg/kg): 3.33%
- animals survived / survival rate (Trichomonas foetus): 63.3%
- activity against T. foetus compared with metronidazol (in words) (Trichomonas foetus): substantially better activity in mice infected with T. foetus
- LD50 (in vivo): > 2000 mg/kg
- Mutation frequency [2]: 0
- mutagenicity, spot test (in words) ([2]; Table 3a): no mutants induced by A are observed
- MBC (streptococci group C 805; 24 h): 500 µg/mL (≈ 1670 µM)
- MIC (streptococci group C 805; 24 h): 250 µg/mL (≈ 835 µM)
- MBC (streptococci group C 805; 48 h): 500 µg/mL (≈ 1670 µM)
- MIC (streptococci group C 805; 48 h): 250 µg/mL (≈ 835 µM)
- MBC (streptococci group C 805): 500 µg/mL (≈ 1670 µM)
- Concentration from which subcultures no longer started (streptococci group C 805; [3]): 500 µg/mL
- MBC (Klebs. pneum. PCI 602; 24 h): 31.2 µg/mL (≈ 104 µM)
- MIC (Klebs. pneum. PCI 602; 24 h): 7.8 µg/mL (≈ 26.1 µM)
- MBC (Klebs. pneum. PCI 602; 48 h): 31.2 µg/mL (≈ 104 µM)
- MIC (Klebs. pneum. PCI 602; 48 h): 7.8 µg/mL (≈ 26.1 µM)
- MBC (Klebs. pneum. PCI 602): 31.2 µg/mL (≈ 104 µM)
- Concentration from which subcultures no longer started (Klebs. pneum. PCI 602; [3]): 31.25 µg/mL
- MBC (streptoc. group B 779; 24 h): 500 µg/mL (≈ 1670 µM)
- MIC (streptoc. group B 779; 24 h): 250 µg/mL (≈ 835 µM)
- MBC (streptoc. group B 779; 48 h): 500 µg/mL (≈ 1670 µM)
- MIC (streptoc. group B 779; 48 h): 500 µg/mL (≈ 1670 µM)
- MBC (streptoc. group B 779): 500 µg/mL (≈ 1670 µM)
- Concentration from which subcultures no longer started (streptoc. group B 779; [3]): 500 µg/mL
- MBC (enterococci; [4]): 250 µg/mL (≈ 835 µM)
- MIC (enterococci; 24 h): 62.5 µg/mL (≈ 209 µM)
- MBC (enterococci; [5]): 500 µg/mL (≈ 1670 µM)
- MIC (enterococci; 48 h): 250 µg/mL (≈ 835 µM)
- MBC (enterococci; [6]): 250 µg/mL (≈ 835 µM)
- MBC (enterococci; [7]): 500 µg/mL (≈ 1670 µM)
- MBC (Ps. aeruginosa 2; Pseudomonas aeruginosa, 2, 24 h, read-out: Concentration from which subcultures no longer started): 250 µg/mL (≈ 835 µM)
- MIC (Ps. aeruginosa 2; Pseudomonas aeruginosa, 2, 24 h): 250 µg/mL (≈ 835 µM)
- MBC (Ps. aeruginosa 2; Pseudomonas aeruginosa, 2, 48 h, read-out: Concentration from which subcultures no longer started): 250 µg/mL (≈ 835 µM)
- MIC (Ps. aeruginosa 2; Pseudomonas aeruginosa, 2, 48 h): 250 µg/mL (≈ 835 µM)
- MBC (Ps. aeruginosa 2; Pseudomonas aeruginosa, 2, read-out: Concentration from which subcultures no longer started): 250 µg/mL (≈ 835 µM)
- Concentration from which subcultures no longer started (Ps. aeruginosa 2; [3]): 250 µg/mL
- MBC (Staph. aur. SG 511; [4]): 125 µg/mL (≈ 418 µM)
- MIC (Staph. aur. SG 511; 24 h): 31.2 µg/mL (≈ 104 µM)
- MBC (Staph. aur. SG 511; [5]): 31.2 µg/mL (≈ 104 µM)
- MIC (Staph. aur. SG 511; 48 h): 31.2 µg/mL (≈ 104 µM)
- MBC (Staph. aur. SG 511; [6]): 125 µg/mL (≈ 418 µM)
- MBC (Staph. aur. SG 511; [7]): 31.2 µg/mL (≈ 104 µM)
- MBC (C. Albicans 49; [4]): 62.5 µg/mL (≈ 209 µM)
- MIC (C. Albicans 49; 24 h): 62.5 µg/mL (≈ 209 µM)
- MBC (C. Albicans 49; [5]): 125 µg/mL (≈ 418 µM)
- MIC (C. Albicans 49; 48 h): 62.5 µg/mL (≈ 209 µM)
- MBC (C. Albicans 49; [6]): 62.5 µg/mL (≈ 209 µM)
- MBC (C. Albicans 49; [7]): 125 µg/mL (≈ 418 µM)
- Mutants/ml, Test (S. typhimurium G 46; 200 mg/kg per os): 0 Mutants/ml
- Mutants/ml, Test (S. typhimurium G 46; 400 mg/kg per os): 0 Mutants/ml
- mutagenicity, host mediated assay (in words) (S. typhimurium G 46; Table 3b): no mutants induced by A are observed
- Mutation frequency in test animals (S. typhimurium G 46; in vivo): 0

Structure (SMILES): CCc1ccccc1C(=O)NN=CC=Cc1ccc([N+](=O)[O-])o1 [B, 2-[(o-ethylbenzoylhydrazono)propen-1-yl]-5-nitrofuran]
- % of Animals Dying After Infection (Mean Value) (Trichomonas foetus; 1.56 mg/kg): 86%
- % of Animals Dying After Infection (Mean Value) (Trichomonas foetus; 3.12 mg/kg): 62%
- % of Animals Dying After Infection (Mean Value) (Trichomonas foetus; 6.25 mg/kg): 46%
- % of Animals Dying After Infection (Mean Value) (Trichomonas foetus; 12 mg/kg): 6%
- % of Animals Dying After Infection (Mean Value) (Trichomonas foetus; 25 mg/kg): 0%
- animals survived / survival rate (Trichomonas foetus): 54%
- activity against T. foetus compared with metronidazol (in words) (Trichomonas foetus): substantially better activity in mice infected with T. foetus
- LD50 (in vivo): > 2000 mg/kg
